Results as given in patent publication US12415939B2, “Nano-adhesive and surface primer compound and use thereof” (The Regents of the University of California, priority 2015, dated 2025).

Experiments:
[1] = Contact angle measurements on SAM-modified substrates; type: physicochemical; conditions: SAM-modified nano-grooved SiO2
Procedure: The nano-grooved SiO2 substrates passivated with Z-Cat-Ben or Z-Cat-Ben-F SAMs were prepared with the same procedure described above. For the reference substrate, the pre-cleaned and ultraviolet/ozone-treated (for 10 min) nano-grooved SiO2 substrate was passivated with n-decyltrichlorosilane (Gelest Inc.) in toluene solution (1% by volume) at 80° C. for 20 min in ambient air. Then, the substrate was subsequently sonicated in toluene and rinsed with additional toluene several times. Anhydrous chlorobenzene (50 μL) was used as a droplet dropping on the substrates. All contact angle images were taken at the direction perpendicular to nano-grooves in the substrates using Dataphysics OCA 15EC goniometer.

[2] = AFM adhesion force runs with silica probe on Z-Cat-C10 coated silicon wafer; type: physicochemical
Procedure: AFM force runs were measured with and without Z-Cat-C10 on silicon wafer and copper plate, respectively, vs. silicon dioxide probe. Underwater force run was conducted for the surface prepared subsequently after spreading the 5 mM Z-Cat-C10, waiting for 2 min, rinsing thoroughly with degassed DI water thoroughly for 3 times. Dry force run was performed after ˜5 min dry of the surface prepared as for the underwater force run. […] Cantilever spring constant (K) for #=10 μm silica tip on silicon wafer and copper plate with Z-Cat-C10, was 0.1 N m^−1.
The measured adhesion, Fa, force (minimum of the potential well of the F vs. D curves obtained from AFM measurements) is related to the adhesion energy per unit area by Wa=Fa/2πR for rigid surfaces with weak adhesive interactions, and by Wa=Fa/1.5πR (used in this study) for soft deformable surfaces with strong adhesion or cohesion. Since copper surface (RMS˜2 nm) is rougher than silicon wafer (RMS<1 nm), the Wa on copper surface was comparatively weaker than the Wa of silicon wafer. Hydroxide/oxide on copper surface also weakens the adhesion to copper plate compared to just oxide on silicon wafer (see FIGS. 18-23). […]
The adhesion/cohesion energy of the synthetic zwitterionic molecules was investigated in SFA (SurForce LLC, Santa Barbara, CA). Two molecularly smooth freshly cleaved back silvered mica surfaces glued on cylindrical silica discs of radius of curvature, R˜2 cm, were mounted in the SFA and 50 μL of a colloidal dispersion of the synthetic molecules in DI water were injected between the surfaces at different concentrations (C=0.5-5 mM) and the forces between the thin films of the molecules were measured by Multiple Beam Interferometry (MBI). The adhesion forces between Z-Cat-C10 molecules on various surfaces, e.g., silica and copper, were also measured by AFM (MFP-3D, Asylum research, Goleta, CA) in DI water and ambient conditions, respectively, at room temperature. […] Cantilever spring constants were measured for each force run. […]

C[N+](C)(CCCc1ccccc1)CCOP(=O)([O-])OCCCc1ccc(O)c(O)c1 [Z-Cat-Ben]
contact angle θ of chlorobenzene droplet [1]: ≈ 1 °

CN(C)CCOP(=O)(O)OCCCc1ccc(O)c(O)c1 [Z-Cat-C10]
dry Wad relative to catecholic polysiloxane ([2]; SiO2 and SiO2 surfaces): 50 fold | adhesion Wad after air-drying ([2]; air-dried ~5 min, SiO2 and SiO2 surfaces): ~175 mJ m^−2 | wet work of adhesion Wad ([2]; underwater, SiO2 and SiO2 interface, 5 mM coating): ~7.7 mJ m^−2
